Experimental data taken from US20230034660A1, “PEPTIDES THAT ENHANCE NMDA RECEPTOR FUNCTION AND USE THEREOF” (University of Pittsburgh - Of the Commonwealth System of …, priority 2019, published 2023).

Key:
AMPAR = AMPAR EPSCs in DCN cartwheel cells in brain slices, ZX1 potentiation; assay type: cell-based, mice; settings: slices treated with peptide 3 μM; ZX1 100 μM; −70 mV
Method: Male and female mice (postpartum days 18-28) were anesthetized with isoflurane and sacrificed. Brains were rapidly dissected and sectioned into 210 μm thick coronal slices containing dorsal cochlear nucleus (DCN) on a vibratome (Leica, VT1000S). Slices were incubated in ACSF containing 130 mM NaCl, 3 mM KCl, 2.4 mM CaCl2, 1.3 mM MgCl2, 20 mM NaHCO3, 3 mM HEPES, and 10 mM glucose, saturated with 95% O2/5% CO2 (vol/vol), pH ˜7.3, ˜300 mOsm at 35° C. for 1 hour before being moved to room temperature. During preparation, ACSF was treated with Chelex 100 resin to remove any contaminating zinc. After applying Chelex to the ACSF, high-purity calcium and magnesium salts were added (99.995% purity). All plastic and glassware were washed with 5% high-purity nitric acid.
For brain slice recordings, whole-cell recordings of NMDAR EPSCs in slice DCN cartwheel cells were obtained with micropipettes (3-6 MΩ) containing 128 mM Cs(CH3O3S), 4 mM MgCl2·6H2O, 4 mM Na2ATP, 10 mM HEPES, 0.3 mM Tris-GTP, 10 mM Tris-phosphocreatine, 1 mM CsEGTA, 1 mM, QX-314, 3 mM sodium ascorbate, pH=˜7.2, 300 mOsm. […] NMDAR EPSCs were recorded in voltage clamp mode, at a holding potential of +40 mV, in the presence of DNQX (20 μM, AMPA and kainate receptor antagonist), SR95531. […] AMPA EPSCs were recorded in voltage clamp mode at a holding potential of −70 mV in the presence of SR9551. […]

NMDAR [1] = assay: NMDAR Lev-EPSCs in auditory cortex L2/3 principal neurons, ZX1 effect; assay type: cell-based, ICR mice; settings: auditory cortex slices incubated with peptide or scramble; 100 μM ZX1; +40 mV
Text: (FIG. 11A) Left: schematic illustration of stereotaxic injections in ICR mice, of retrograde microspheres of different colors to label corticocallosal (CCal) and corticollicular (CCol) neurons. CCol neurons were used to identify AC, and viral vector (AAV) for expression of channel rhodopsin (ChR2) in AC L2/3 PNs. Right: schematic illustrating slice electrophysiology experiment involving photostimulation of ChR2 expressing AC L2/3 PNs while recording from adjacent L2/3 PNs. (FIG. 11B) Top: representative traces of L2/3 PN NMDAR Lev-EPSCs (at +40 mV) evoked by a 0.15-ms duration pulse photostimulation of adjacent PNs in control and after 100 μM ZX1, in slices incubated with scramble. Bottom: same as the top panel in slices incubated with the peptide. (FIG. 11C) Time course of the average amplitude of NMDAR Lev-EPSCs before and after ZX1 in slices incubated with scramble and peptide. During the entire experiment application of DNQX and SR 95531 blocked AMPARs and GABAARs, correspondingly. (FIG. 11D) Average effect of ZX1 on L2/3 PN NMDAR Lev-EPSCs amplitudes normalized to control. Peptide ZX1 effect=99.02±3.8%, P=0.521, paired 1-tests, n=3 cells from two mice: Scramble ZX1 effect=159.4±15.8%, P=0.068, paired t-tests, n=4 cells from three mice. The difference is statistically significant at P=0.034, Unpaired t-test. Asterisk denotes a statistically significant difference at P<0.05. […]

NMDAR [2] = assay: NMDAR EPSCs in DCN cartwheel cells in brain slices, ZX1 potentiation; assay type: cell-based, mice; settings: ZX1 100 μM; for ZX1 potentiation of NMDAR-mediated synaptic currents, 20 Hz: slices treated with peptide 3 μM at least 1 hour, parallel fibers stimulated at 20 Hz, +40 mV

## NDSYLRSSL [Peptide N2AZ]
AMPAR
  ZX1 potentiation of AMPAR EPSCs: 29.3±6.70%
NMDAR [1]
  ZX1 effect on L2/3 PN NMDAR Lev-EPSCs amplitudes normalized to control: 99.02±3.8%
NMDAR [2]; N2AZ-treated slices (3 μM) from WT littermate controls, 20 Hz
  ZX1 potentiation of NMDAR-mediated synaptic currents, WT littermates: 5.60±4.38%
NMDAR [2]; N2AZ-treated slices (3 μM) from ZnT3 null mice, 20 Hz
  ZX1 potentiation of NMDAR-mediated synaptic currents, ZnT3 KO: 11.9±6.90%
NMDAR [2]
  ZX1 potentiation of NMDAR-mediated synaptic currents, 20 Hz: 19.39±5.82%
NMDAR [2]; slices treated with peptide 3 μM, 100 Hz stimulation frequency
  ZX1 potentiation of NMDAR EPSCs, 100 Hz: 1.95±4.33%

## SNLSDSYDR [scN2AZ, reference compound]
AMPAR
  ZX1 potentiation of AMPAR EPSCs: 30.3±10.24%
NMDAR [1]
  ZX1 effect on L2/3 PN NMDAR Lev-EPSCs amplitudes normalized to control: 159.4±15.8%
NMDAR [2]
  ZX1 potentiation of NMDAR-mediated synaptic currents, 20 Hz: 47.30±10.14%
